In PubChem BioAssay (NCI):
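Dose response: 5 concentrations. Exposure: 48 h. Format: 96-well plates. Endpoint: linear interpolation; highest concentration if not reached. GI50 = concentration required for 50% inhibition of growth. TGI: total growth inhibition.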

What was measured:
Assay in all cases: NCI tumour cell line growth inhibition, 48 h
SK-OV-3 ovarian = system: SK-OV-3 ovarian
M14 melanoma = system: M14 melanoma
OVCAR-8 ovarian = system: OVCAR-8 ovarian
NCI-H460 lung = system: NCI-H460 lung
A498 renal = system: A498 renal
CAKI-1 renal = system: CAKI-1 renal
HCT-116 colon = system: HCT-116 colon
IGROV1 ovarian = system: IGROV1 ovarian
RXF 393 renal = system: RXF 393 renal
U251 CNS = system: U251 CNS
SNB-75 CNS = system: SNB-75 CNS
OVCAR-3 ovarian = system: OVCAR-3 ovarian
UO-31 renal = system: UO-31 renal
A549 NSCLC = system: A549 NSCLC
SW-620 colon = system: SW-620 colon
SF-539 CNS = system: SF-539 CNS
MOLT-4 leukemia = system: MOLT-4 leukemia
SF-295 CNS = system: SF-295 CNS
DU-145 prostate = system: DU-145 prostate
TK-10 renal = system: TK-10 renal
BT-549 breast = system: BT-549 breast
SR leukemia = system: SR leukemia
SN12C renal = system: SN12C renal
UACC-62 melanoma = system: UACC-62 melanoma
HCT-15 colon = system: HCT-15 colon
HS 578T breast = system: HS 578T breast
ACHN renal = system: ACHN renal
PC-3 prostate = system: PC-3 prostate
SK-MEL-5 melanoma = system: SK-MEL-5 melanoma
HCC-2998 colon = system: HCC-2998 colon
K-562 leukemia = system: K-562 leukemia
UACC-257 melanoma = system: UACC-257 melanoma
NCI-H226 lung = system: NCI-H226 lung
HT29 colon = system: HT29 colon
MDA-MB-231 breast = system: MDA-MB-231 breast
EKVX NSCLC = system: EKVX NSCLC
MALME-3M melanoma = system: MALME-3M melanoma
SF-268 CNS = system: SF-268 CNS
COLO 205 colon = system: COLO 205 colon
OVCAR-5 ovarian = system: OVCAR-5 ovarian
KM12 colon = system: KM12 colon
SK-MEL-28 melanoma = system: SK-MEL-28 melanoma
RPMI-8226 leukemia = system: RPMI-8226 leukemia
NCI/ADR-RES ovarian = system: NCI/ADR-RES ovarian
MDA-MB-435 = system: MDA-MB-435
T-47D breast = system: T-47D breast
SNB-19 CNS = system: SNB-19 CNS
HOP-62 NSCLC = system: HOP-62 NSCLC
CCRF-CEM leukemia = system: CCRF-CEM leukemia
OVCAR-4 ovarian = system: OVCAR-4 ovarian
NCI-H522 lung = system: NCI-H522 lung
HOP-92 NSCLC = system: HOP-92 NSCLC
LOX IMVI melanoma = system: LOX IMVI melanoma
786-0 renal = system: 786-0 renal
HL-60(TB) leukemia = system: HL-60(TB) leukemia
SK-MEL-2 melanoma = system: SK-MEL-2 melanoma
MCF7 breast = system: MCF7 breast
NCI-H23 lung = system: NCI-H23 lung

`CCN1CCN(c2nc(NNC(=O)c3ccccc3)nc(N3CCN(C(c4ccccc4)c4ccccc4)CC3)n2)CC1` was tested, and the GI50 (SK-OV-3 ovarian) was 5.93 µM, the TGI (SK-OV-3 ovarian) was 22.1 µM and the GI50 (M14 melanoma) was 1.88 µM. It also gave a TGI (M14 melanoma) of 3.56 µM, a GI50 (OVCAR-8 ovarian) of 3.58 µM and a TGI (OVCAR-8 ovarian) of 19.5 µM. It also gave a GI50 (NCI-H460 lung) of 2.1 µM, a TGI (NCI-H460 lung) of 4.63 µM and a GI50 (A498 renal) of 6.3 µM. For the same molecule, the TGI (A498 renal) was 27.1 µM, the GI50 (CAKI-1 renal) was 2.21 µM and the TGI (CAKI-1 renal) was 5.76 µM. It also gave a GI50 (HCT-116 colon) of 1.78 µM, a TGI (HCT-116 colon) of 3.41 µM and a GI50 (IGROV1 ovarian) of 3.09 µM. For the same molecule, the TGI (IGROV1 ovarian) was 12.8 µM, the GI50 (RXF 393 renal) was 2.56 µM and the TGI (RXF 393 renal) was 7.57 µM. The GI50 (U251 CNS) was 3.05 µM, the TGI (U251 CNS) was 10.5 µM and the GI50 (SNB-75 CNS) was 3.96 µM. The TGI (SNB-75 CNS) was 18.1 µM, the GI50 (OVCAR-3 ovarian) was 3.43 µM and the TGI (OVCAR-3 ovarian) was 13.2 µM. It also gave a GI50 (UO-31 renal) of 1.52 µM, a TGI (UO-31 renal) of 3.25 µM and a GI50 (A549 NSCLC) of 3.7 µM. It also gave a TGI (A549 NSCLC) of 20.2 µM, a GI50 (SW-620 colon) of 2.3 µM and a TGI (SW-620 colon) of 5.88 µM. For the same molecule, the GI50 (SF-539 CNS) was 1.84 µM, the TGI (SF-539 CNS) was 3.45 µM and the GI50 (MOLT-4 leukemia) was 2.01 µM. The TGI (MOLT-4 leukemia) was 5.42 µM, the GI50 (SF-295 CNS) was 4.58 µM and the TGI (SF-295 CNS) was 16.3 µM. It also gave a GI50 (DU-145 prostate) of 8.11 µM, a TGI (DU-145 prostate) of 26.5 µM and a GI50 (TK-10 renal) of 3.31 µM. The TGI (TK-10 renal) was 11.4 µM, the GI50 (BT-549 breast) was 2.49 µM and the TGI (BT-549 breast) was 7.6 µM. The GI50 (SR leukemia) was 1.78 µM, the TGI (SR leukemia) was 4.69 µM and the GI50 (SN12C renal) was 2.89 µM. For the same molecule, the TGI (SN12C renal) was 8.97 µM, the GI50 (UACC-62 melanoma) was 1.96 µM and the TGI (UACC-62 melanoma) was 4.29 µM. The GI50 (HCT-15 colon) was 2.3 µM, the TGI (HCT-15 colon) was 5.84 µM and the GI50 (HS 578T breast) was 3.3 µM. The TGI (HS 578T breast) was 22.3 µM, the GI50 (ACHN renal) was 2.53 µM and the TGI (ACHN renal) was 6.56 µM. For the same molecule, the GI50 (PC-3 prostate) was 1.9 µM, the TGI (PC-3 prostate) was 7.57 µM and the GI50 (SK-MEL-5 melanoma) was 1.73 µM. It also gave a TGI (SK-MEL-5 melanoma) of 3.14 µM, a GI50 (HCC-2998 colon) of 1.95 µM and a TGI (HCC-2998 colon) of 4.08 µM. It also gave a GI50 (K-562 leukemia) of 1.77 µM, a TGI (K-562 leukemia) of 4.32 µM and a GI50 (UACC-257 melanoma) of 1.9 µM. It also gave a TGI (UACC-257 melanoma) of 4.25 µM, a GI50 (NCI-H226 lung) of 11.9 µM and a TGI (NCI-H226 lung) of 29.5 µM. The GI50 (HT29 colon) was 2.95 µM, the TGI (HT29 colon) was 13.4 µM and the GI50 (MDA-MB-231 breast) was 2.7 µM. For the same molecule, the TGI (MDA-MB-231 breast) was 7.55 µM, the GI50 (EKVX NSCLC) was 10.3 µM and the TGI (EKVX NSCLC) was 30 µM. The GI50 (MALME-3M melanoma) was 1.7 µM, the TGI (MALME-3M melanoma) was 3.48 µM and the GI50 (SF-268 CNS) was 11.6 µM. It also gave a TGI (SF-268 CNS) of 32.7 µM, a GI50 (COLO 205 colon) of 1.9 µM and a TGI (COLO 205 colon) of 3.83 µM. The GI50 (OVCAR-5 ovarian) was 6.03 µM, the TGI (OVCAR-5 ovarian) was 21.4 µM and the GI50 (KM12 colon) was 3.42 µM. The TGI (KM12 colon) was 11.8 µM, the GI50 (SK-MEL-28 melanoma) was 1.8 µM and the TGI (SK-MEL-28 melanoma) was 3.49 µM. The GI50 (RPMI-8226 leukemia) was 1.65 µM, the TGI (RPMI-8226 leukemia) was 4.1 µM and the GI50 (NCI/ADR-RES ovarian) was 3.32 µM. For the same molecule, the TGI (NCI/ADR-RES ovarian) was 14.3 µM, the GI50 (MDA-MB-435) was 1.94 µM and the TGI (MDA-MB-435) was 3.78 µM. It also gave a GI50 (T-47D breast) of 3.16 µM, a TGI (T-47D breast) of 31.2 µM and a GI50 (SNB-19 CNS) of 4.28 µM. It also gave a TGI (SNB-19 CNS) of 17.8 µM, a GI50 (HOP-62 NSCLC) of 12.7 µM and a TGI (HOP-62 NSCLC) of 31.8 µM. It also gave a GI50 (CCRF-CEM leukemia) of 2.05 µM, a TGI (CCRF-CEM leukemia) of 6.36 µM and a GI50 (OVCAR-4 ovarian) of 5.39 µM. The TGI (OVCAR-4 ovarian) was 26.1 µM, the GI50 (NCI-H522 lung) was 2.69 µM and the TGI (NCI-H522 lung) was 7.65 µM. For the same molecule, the GI50 (HOP-92 NSCLC) was 1.39 µM, the TGI (HOP-92 NSCLC) was 3.7 µM and the GI50 (LOX IMVI melanoma) was 1.82 µM. It also gave a TGI (LOX IMVI melanoma) of 3.35 µM, a GI50 (786-0 renal) of 1.82 µM and a TGI (786-0 renal) of 3.47 µM. The GI50 (HL-60(TB) leukemia) was 1.76 µM, the TGI (HL-60(TB) leukemia) was 3.99 µM and the GI50 (SK-MEL-2 melanoma) was 2.4 µM. For the same molecule, the TGI (SK-MEL-2 melanoma) was 5.67 µM, the GI50 (MCF7 breast) was 1.39 µM and the TGI (MCF7 breast) was 3.46 µM. For the same molecule, the GI50 (NCI-H23 lung) was 3.17 µM and the TGI (NCI-H23 lung) was 11.1 µM.
